Data on five molecules can be found in PMC11378298 (ACS Chemical Neuroscience, 2024).

In one data set the target is GSK-3β (Homo sapiens, UniProt P49841). In words: biochemical. The protocol: We evaluated the pharmacological properties of the compounds in vitro against GSK-3β using the GSK-3β Kinase Enzyme System followed by ADP-Glo bioluminescent assay.[50] The principle of the assay is to determine the amount of ADP formed from ATP in the kinase reaction. […] Additionally, compounds 11 and 36 in complex with GSK-3β were analyzed by the proteins’ melting temperature determination using Thermal Shift Assay (see Figure S1 in the SI).
GSK-3β, sequence (P49841 whole entry): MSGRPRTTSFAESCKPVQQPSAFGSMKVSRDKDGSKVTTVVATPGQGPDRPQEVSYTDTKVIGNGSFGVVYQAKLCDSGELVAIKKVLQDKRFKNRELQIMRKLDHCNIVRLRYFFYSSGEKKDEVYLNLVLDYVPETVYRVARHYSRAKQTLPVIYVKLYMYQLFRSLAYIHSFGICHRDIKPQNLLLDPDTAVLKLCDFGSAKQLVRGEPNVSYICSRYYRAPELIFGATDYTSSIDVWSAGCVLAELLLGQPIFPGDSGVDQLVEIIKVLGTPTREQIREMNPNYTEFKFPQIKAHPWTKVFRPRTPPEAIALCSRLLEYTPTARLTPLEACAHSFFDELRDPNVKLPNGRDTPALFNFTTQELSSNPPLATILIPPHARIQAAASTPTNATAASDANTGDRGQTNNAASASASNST
The inhibitory activities of the tested compounds against the GSK-3β human recombinant kinase were measured using Promega’s GSK-3β Kinase Enzyme System (Promega; Madison, WI, USA), according to the provided manufacturer’s instruction, using the low-volume white polystyrene 384-well plates. The ADP-Glo Assay (Promega; Madison, WI, USA) was used for bioluminescent detection of the kinase activity. Tested compounds were prepared as 1 mM stock solutions in DMSO and diluted with the Kinase Assay Buffer before use (40 mM Tris, pH 7.5, enriched with 50 μM dithiothreitol; DTT) to obtain the desired compounds’ concentrations. The kinase enzyme, GSK-3β-substrate (derived from human muscle glycogen synthase 1), and ATP were also diluted in the assay buffer before use. At first, GSK-3β (10 ng per well) was incubated with the tested sample (10 μM in well) for 5 min. In the case of blank wells, the DMSO solution (1% in well) was used instead of the target samples’ solutions. After the incubation period, ATP (25 μM in well) and GSK-3β-substrate (0.2 μg/μL in well) were added to start the enzymatic reaction. The reaction mixture was kept at room temperature for 1 h, followed by the addition of the ADP-Glo reagent, to terminate the kinase reaction and deplete any remaining ATP. After the following 40 min—a second reagent (Kinase Detection Reagent) was applied to convert the obtained ADP to ATP and to generate light from the newly synthesized ATP using a luciferase/luciferin reaction. The mixture was kept for another 30 min at room temperature, then the luminescence was measured. Based on equation 100 – (S/B) × 100 (where S and B were the respective enzyme activities with and without the tested sample, respectively) the percent of inhibition of GSK-3β for each compound was calculated. […] Calculations were made using nonlinear regression (GraphPad Prism 9; GraphPad Software, San Diego, CA, USA) by plotting the residual enzyme activities against the applied inhibitor concentration. […] Each data point was collected in triplicate.

In the next data set the test system is BV-2 cell line. In words: NO release in LPS-treated BV-2 cells (DAN fluorometric assay). Conditions: compound 0.1, 1, 10 μM; LPS 100 ng/mL. In kind it is cell-based, mouse. The protocol: Cell viability was determined by Presto Blue assay after 24 h. (B) Effect of compounds 11, 34, and 36 (0.1, 1, 10 μM) on NO-release (%) in LPS-treated (100 ng/mL) BV-2 cell line. NO-release was measured using a fluorometric assay with 2,3-diaminonaphthalene (DAN). (C, D) Effects of compounds 11 and 36 (0.1, 1, 10 μM) on IL-6 and TNF-α release in LPS-treated (100 ng/mL) BV-2 cell line. The IL-6 and TNF-α levels were measured using LANCE Ultra TR-FRET Detection Kit (PerkinElmer). Statistical analysis was performed using GraphPad Prism 9.0.0. All values are expressed as mean with SD. Differences among groups were evaluated by one-way ANOVA followed by posthoc analysis (Dunnett’s multiple comparison tests) vs. control group (LPS on BV-2 cells and okadaic acid on HT-22 cells) and were considered statistically significant if p < 0.05 (*p < 0.05, **p < 0.01, ***p < 0.001, and ****p < 0.0001).
An important role in the pathogenesis of AD has been attributed to neuroinflammation resulting from the activation of astrocytes and microglial cells.[55] These processes lead to increased production of proinflammatory cytokines such as TNF-α or IL-6 that activate processes, e.g., tau hyperphosphorylation, causing injury and cell death.[56] A standard model of neuroinflammation is based on lipopolysaccharide-stimulated BV-2 microglial cells. In this study, we used this model to evaluate the anti-inflammatory properties of compounds 11, 34, and 36.[57] Our evaluation focused on monitoring the levels of key inflammatory markers, including nitric oxide (NO, Figure 6B) and cytokines, TNF-α and IL-6 (Figure 6C,D).
The cells were pretreated with tested compounds for 1 h. […]
The NO level in the culture supernatants was measured using 2,3-diaminonaphthalene (DAN) reagent according to the method of Nussler et al.[88] After 15 min of incubation at room temperature, the fluorescence intensity (EX 360; EM 440 nm) was measured using a microplate reader POLARstar Omega, (BMG Labtech). The values of nitric oxide were calculated as a percentage of control (maximal response of LPS).

Another data set concerns HT-22 cells. In words: Cytotoxicity in HT-22 cells (PrestoBlue). The note with it: whole range of concentrations 0.1–100 μM. The protocol:
(§1) The compounds were tested at 5 concentrations (0.1, 1, 10, 50, and 100 μM).
(§2) Mouse Hippocampal Neuronal Cell Line (HT-22) was a generous gift from Dr Bartosz Pomierny of the Department of Biochemical Toxicology, Jagiellonian University Medical College, Krakow, Poland. Cells were cultured in Dulbecco’s modified Eagle’s Medium—high glucose (DMEM, Glutamax Thermo Fisher) supplemented with 10% heat-inactivated fetal bovine serum (Thermo Fisher), 100 IU/mL penicillin (Merck) and 100 μg/mL streptomycin (Merck). Cells were cultured in flasks (area 175 cm^2, Nunc), and incubated at 37 °C, 5% CO2. For the measurement of cell viability and neuroprotective effect against okadaic acid cells were placed in a 96-well culture plate (2 × 10^4 cells per well, Falcon). Before the tests, cells were grown for 24 h in the incubator (37 °C, 5% CO2).
(§3) Cell viability was evaluated using the PrestoBlue reagent (ThermoFisher), according to the manufacturer’s procedures.[87] Following 24 h of incubation with the tested molecule, PrestoBlue reagent was added to a microplate well in an amount equal to one-tenth of the remaining medium volume. The resulting mixture was incubated for 15 min at 37 °C, and the fluorescence intensity (EX 530 nm; EM 580 nm) was measured in the plate reader POLARstar Omega, (BMG Labtech).

Data set [1] in a line: Cytotoxicity in HT-22 cells (PrestoBlue). The note with it: mouse, HT-22 hippocampal neuronal cells. The procedure: as §1, §2, §3
Data set [2] can be described thus: Cytotoxicity in BV-2 cells (PrestoBlue). Conditions: mouse, BV-2 microglial cells. The protocol: as §1
Mouse microglial cells (BV-2) were a generous gift from Professor Bozena Kaminska-Kaczmarek of the Laboratory of Molecular Neurobiology, Neurobiology Center, Nencki Institute of Experimental Biology, Polish Academy of Sciences, Warsaw, Poland. Cells were cultured in Dulbecco’s modified Eagle’s Medium-high glucose (DMEM, Glutamax Thermo Fisher) supplemented with 10% heat-inactivated fetal bovine serum (Thermo Fisher), 100 IU/mL penicillin (Merck) and 100 μg/mL streptomycin (Merck). Cells were cultured in flasks (area 175 cm^2, Nunc), and incubated at 37 °C, 5% CO2. To evaluate the level of NO, IL-6, and TNF-α and the effectiveness of the compounds tested, BV-2 microglia cells were cultured in a 96-well culture plate (5 × 10^4 cells per well, Falcon). For the measurement of cell viability and cell membrane damage, cells were placed in a 96-well culture plate (2 × 10^4 cells per well, Falcon). Before the tests, cells were grown for 24 h in the incubator (37 °C, 5% CO2).
as §3

As a reminder, the IC50 is the concentration needed to halve the response being measured. On GSK-3β, `O=C(Nc1cc(-c2ccc(-c3ncon3)cc2)ccn1)C1CC1` [Compound 32, N-(4-(4-(1,2,4-Oxadiazol-3-yl)phenyl)pyridin-2-yl)cyclopropanecarboxamide] showed an IC50 of 257 ± 5 nM.

The molecule `O=C(Nc1cc(-c2cccc(-c3ncon3)c2)ccn1)C1CC1` [Compound 33, N-(4-(3-(1,2,4-Oxadiazol-3-yl)phenyl)pyridin-2-yl)cyclopropanecarboxamide] displayed an IC50 against GSK-3β of 898 ± 32 nM.

Turning to `O=C(Nc1cc(-c2ccc(-c3ncon3)nc2)ccn1)C1CC1` [Compound 34, N-(6-(1,2,4-Oxadiazol-3-yl)-[3,4′-bipyridin]-2′-yl)cyclopropanecarboxamide], in the data set with BV-2 cell line, the “impact on NO release” value is recorded as “did not show any impact”. On GSK-3β, the IC50 turned out to be 185 ± 3 nM. Besides, in the data set on HT-22 cells, the “cell viability in HT-22 cells” value is recorded as “No significant decrease in cell viability”. The IC50 at 24 h in data set [1] was over 100 µM; in data set [2], 39.2 ± 5.2 µM.

Regarding `O=C(Nc1cc(-c2ccnc(-c3ncon3)c2)ccn1)C1CC1` [Compound 35, N-(2′-(1,2,4-Oxadiazol-3-yl)-[4,4′-bipyridin]-2-yl)cyclopropanecarboxamide], the IC50 against GSK-3β came to 809 ± 28 nM.

Molecule `O=C(Nc1cc(-c2ccc(-c3ccccc3)s2)ccn1)C1CC1` [Compound 37, N-(4-(5-Phenylthiophen-2-yl)pyridin-2-yl)cyclopropanecarboxamide] yielded an IC50 on GSK-3β of 5220 ± 301 nM.
